Test results as given in patent US20220000860A1, “COMPOUNDS, COMPOSITIONS, AND METHODS FOR TREATING HUMAN IMMUNODEFICIENCY VIRUS” (OYAGEN, INC., priority 2017, published 2022).
Read-outs that look alike come from different tables or passages of the source.

Assays:
[1] = PBMC Acute Infection, cytotoxicity (CC50/CC90); format: cell-based; conditions: human
Protocol: (§1) PHA-stimulated cells from at least two normal donors were pooled (i.e. mixed together), diluted in fresh medium to a final concentration of 1×10^6 cells/mL, and plated in the interior wells of a 96-well round bottom microplate at 50 μL/well (5×10^4 cells/well). Pooling of mononuclear cells from more than one donor was used to minimize the variability observed between individual donors in quantitative and qualitative differences in HIV infection and overall response to the PHA and IL-2 of primary lymphocyte populations. Each plate contained virus control wells (cells plus virus) and experimental wells (drug plus cells plus virus) of either 00KE_KER2008 (Subtype A), IIIB (Subtype B), or 98US_MSC5016 (Subtype C). Test drug dilutions were prepared at a 2×concentration and 100 μL of each concentration was placed in appropriate wells. Fifty μL of a predetermined dilution of virus stock was placed in each test well (final MOI≅0.1). After this period, cell-free supernatant samples were collected for analysis of reverse transcriptase (RT) activity with an RT assay. […] In the Table below SI50=CC50/EC50 and SI90=CC90/EC90.

[2] = tested on: IIIB (Subtype B); test: PBMC Acute Infection, IIIB; format: cell-based, HIV; conditions: Human immunodeficiency virus 1, isolate IIIB, subtype B, RT activity readout; for EC50: read-out: EC50; for EC90: read-out: EC90
Protocol: as §1

[3] = target: T1, pNL4-3 Vif (Vif multimerization) (Human immunodeficiency virus type 1 group M subtype B, UniProt P12504); test: Vif FqRET Multimerization Assay; format: cell-based, HIV
T1 construct: expressed in transfected cells; host or cells: HEK293T
Description: The quenched fluorescence resonance energy transfer (FqRET) cell-based assay utilized expression of pNL4-3 Vif (accession no. M19921) tagged separately with either a EGFP fluorophore (EGFP-V5-Vif) or a REACh2 quencher (Vif-HA-REACh2) in the pIRES-P vector. The Vif multimerization assay was established through robotic co-transfection of HEK293T (293T) cells with Turbofect (Thermo) and optimized for input plasmid ratio (1:4, fluorophore to quencher) to achieve maximum quench of fluorescent signal. EGFP fluorescence was quantified 24 hours after transfection with a BioTek Synergy4 plate reader (ex=485 nm, em=528 nm) followed by the addition of 0-30 μM compound. The plates were read a second time 24 hours after compound addition. The differential between the first and second read in each well was quantified relative to the DMSO control to determine the change in relative fluorescence units (ΔRFU)
The interaction of 2 molecules of Vif (i.e. dimerization) enables quenching of Enhanced Green Fluorescent Protein (EGFP) signal by Resonance Energy Accepting Chromophore 2 (REACh2), a dark mutant of yellow fluorescent protein that is capable of accepting the EGFP donor fluorescence and quenching its signal without an acceptor signal.

[4] = tested on: 98US_MSC5016 (Subtype C); test: PBMC Acute Infection, 98US_MSC5016; format: cell-based, HIV; conditions: Human immunodeficiency virus 1, PBMC, isolate 98US_MSC5016, subtype C, RT activity readout; for EC50: read-out: EC50; for EC90: read-out: EC90
Protocol: as §1

[5] = target: T2, topoisomerase I (TOP1) (Homo sapiens, UniProt P11387); test: topoisomerase I inhibition
T2 sequence (P11387 1-765): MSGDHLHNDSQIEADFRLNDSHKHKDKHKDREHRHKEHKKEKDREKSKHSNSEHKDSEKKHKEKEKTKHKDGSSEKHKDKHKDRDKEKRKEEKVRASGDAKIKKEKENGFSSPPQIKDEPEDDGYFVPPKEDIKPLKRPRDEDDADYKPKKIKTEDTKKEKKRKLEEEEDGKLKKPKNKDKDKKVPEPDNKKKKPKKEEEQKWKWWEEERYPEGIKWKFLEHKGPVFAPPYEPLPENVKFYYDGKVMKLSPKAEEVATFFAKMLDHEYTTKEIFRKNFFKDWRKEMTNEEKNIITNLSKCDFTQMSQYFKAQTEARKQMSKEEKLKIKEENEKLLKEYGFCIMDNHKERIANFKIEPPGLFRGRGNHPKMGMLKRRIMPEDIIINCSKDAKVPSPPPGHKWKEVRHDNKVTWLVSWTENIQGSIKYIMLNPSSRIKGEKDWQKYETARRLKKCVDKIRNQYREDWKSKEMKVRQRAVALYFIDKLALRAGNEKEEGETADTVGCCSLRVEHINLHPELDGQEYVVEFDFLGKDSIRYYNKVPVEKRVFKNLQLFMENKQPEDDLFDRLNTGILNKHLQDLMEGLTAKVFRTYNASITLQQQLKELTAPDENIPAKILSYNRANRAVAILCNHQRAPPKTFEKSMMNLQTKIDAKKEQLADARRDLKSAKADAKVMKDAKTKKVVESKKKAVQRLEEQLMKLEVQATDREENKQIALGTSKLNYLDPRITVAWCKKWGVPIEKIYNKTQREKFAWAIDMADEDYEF

[6] = tested on: 00KE_KER2008 (Subtype A); test: PBMC Acute Infection, 00KE_KER2008; format: cell-based, HIV; conditions: Human immunodeficiency virus 1, PBMC, isolate 00KE-KER2008, subtype A, RT activity readout; for EC50: read-out: EC50; for EC90: read-out: EC90
Protocol: as §1

[7] = tested on: Vif-dependent APOBEC3G degradation; test: Vif-Dependent APOBEC3G Degradation Assay; format: cell-based, HIV
Protocol: APOBEC3G-V5-mCherry was stably expressed from the pIRES-P vector in 293T cells under puromycin selection. Fifty ng of plasmid expressing Vif-HA (accession no. AB573087) was transfected into the cells in 384-well format with Turbofect on a liquid handling robot. Four hours after transfection the compounds were added to cells in a range from 0-15 μM. Twenty-four hours after compound addition mCherry fluorescence was read on a BioTek Synergy4 plate reader (ex=587 nm, em=610 nm). Relative fluorescence units (RFU) from compound treated wells were quantified using thresholds set by the −Vif (positive control) and +Vif (negative control).

[8] = PHA-stimulated PBMCs pooled from at least two normal donors, row of isolate 00KE-KER2008, subtype A
[9] = Human immunodeficiency virus 1, HEK-293T, 24 h, read-out: EC50, A3G Degradation Assay
[10] = Human immunodeficiency virus 1, read-out: A3G degradation at
[11] = row of isolate 00KE-KER2008, subtype A

T1 sequence (P12504 whole entry): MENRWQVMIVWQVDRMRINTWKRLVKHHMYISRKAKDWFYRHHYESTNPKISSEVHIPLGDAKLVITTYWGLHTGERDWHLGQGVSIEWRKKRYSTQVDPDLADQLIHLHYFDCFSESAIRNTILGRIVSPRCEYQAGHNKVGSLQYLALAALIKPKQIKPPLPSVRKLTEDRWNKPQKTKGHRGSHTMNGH

Structure (SMILES)	CC50 [1, 8] [µM]	CC90 [1, 8] [µM]	CC50 ([1]; PHA-stimulated PBMCs pooled from at least two normal donors, row of isolate 98US_MSC5016, subtype C) [µM]	CC50 ([1]; PHA-stimulated PBMCs pooled from at least two normal donors, row of isolate IIIB, subtype B) [µM]	EC50 [2] [µM]	EC90 [2] [µM]	EC50 [3] [µM]	Vif multimerization (result in words) [3]	EC50 [4] [µM]	EC90 [4] [µM]	inhibition of topoisomerase I (TOP1) (result in words) [5]	EC50 [6] [µM]	EC90 [6] [µM]	Vif-dependent A3G degradation (result in words) [7]	EC50 [7, 9] [µM]	EC50 [7, 10] [µM]	CC50 [1, 11] [µM]	CC90 [1, 11] [µM]	CC50 ([1]; row of isolate 98US_MSC5016, subtype C) [µM]	CC50 ([1]; row of isolate IIIB, subtype B) [µM]
CCc1c2c(nc3ccc(N)cc13)-c1cc3c(c(=O)n1C2)CNC(=O)[C@]3(O)CC [Compound O5-SN, (S)-9-Amino-4,11-diethyl-4-hydroxy-1,2-dihydroquinolino[2′,3′:3,4]pyrrolo[1,2-b][2,7]naphthyridine-3,14(4H,12H)-dione]	2.53	> 100	2.53	6.29	0.008	0.025	0.362	block	0.006	0.02	do not inhibit	0.006	0.018	block	0.099	0.084	–	–	–	–
CCc1c2c(nc3ccc(O)cc13)-c1cc3c(c(=O)n1C2)CNC(=O)[C@]3(O)CC [SN38-L, (S)-4,11-Diethyl-4,9-dihydroxy-1,2-dihydroquinolino[2′,3′:3,4]pyrrolo[1,2-b][2,7]naphthyridine-3,14(4H,12H)-dione]	–	–	–	–	0.01	0.028	0.378	block	0.004	0.016	do not inhibit	0.004	0.015	block	0.084	0.099	1.18	27.9	1.18	5.79
